# Results reported in ChEMBL document CHEMBL1909046, “DrugMatrix in vitro pharmacology data”.
# Tested on: not listed separately
# Assay: DRUGMATRIX: Purinergic P2X radioligand binding (ligand: [3H] alpha, beta-Methylene-ATP)
# Assay type: cell membranes, Oryctolagus cuniculus, New Zealand albino, Urinary bladder, Membrane
# Conditions: Not Active = under 50% inhibition at 10 µM
Compound,IC50,Ki
CC1(C)O[C@@H]2C[C@H]3[C@@H]4CCC5=CC(=O)CC[C@]5(C)[C@@]4(F)[C@@H](O)C[C@]3(C)[C@]2(C(=O)CCl)O1 [HALCINONIDE],Not Active,Not Active
CCCN1C[C@H](CSC)C[C@@H]2c3cccc4[nH]cc(c34)C[C@H]21 [PERGOLIDE],Not Active,Not Active
Clc1cccc(Cl)c1NC1=NCCN1 [CLONIDINE],Not Active,Not Active
CN(C)CCCN1c2ccccc2Sc2ccc(Cl)cc21 [CHLORPROMAZINE],Not Active,Not Active
CCOC(=O)C1=C(COCCN)NC(C)=C(C(=O)OC)C1c1ccccc1Cl (stereo not drawn) [AMLODIPINE],Not Active,Not Active
CNCCCN1c2ccccc2CCc2ccccc21 [DESIPRAMINE],Not Active,Not Active
Cc1ccc(/N=C/N(C)/C=N/c2ccc(C)cc2C)c(C)c1 [AMITRAZ],Not Active,Not Active
COc1cc2nc(N3CCN(C(=O)C4COc5ccccc5O4)CC3)nc(N)c2cc1OC (stereo not drawn) [DOXAZOSIN],Not Active,Not Active
COCCc1ccc(OCC(O)CNC(C)C)cc1 (stereo not drawn) [METOPROLOL],Not Active,Not Active

# Molecular target: Adenosine receptor A2a (Homo sapiens, UniProt P29274)
# Sequence (P29274 whole entry): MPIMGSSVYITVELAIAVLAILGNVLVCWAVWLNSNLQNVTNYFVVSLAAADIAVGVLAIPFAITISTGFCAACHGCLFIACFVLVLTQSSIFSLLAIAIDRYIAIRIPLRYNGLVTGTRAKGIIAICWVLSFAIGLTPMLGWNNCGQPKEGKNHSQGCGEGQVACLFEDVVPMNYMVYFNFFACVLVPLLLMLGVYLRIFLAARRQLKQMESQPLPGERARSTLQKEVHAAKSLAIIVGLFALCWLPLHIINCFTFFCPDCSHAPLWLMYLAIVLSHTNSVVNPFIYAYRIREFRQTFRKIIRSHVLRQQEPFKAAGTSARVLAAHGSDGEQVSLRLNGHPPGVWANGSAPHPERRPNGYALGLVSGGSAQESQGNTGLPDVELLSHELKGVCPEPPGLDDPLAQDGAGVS
# Assay: DRUGMATRIX: Adenosine A2A radioligand binding (ligand: […])
# Assay type: cell membranes, Membrane
# Conditions: hek293; Not Active = under 50% inhibition at 10 µM
row,Compound,IC50
1,CC1(C)O[C@@H]2C[C@H]3[C@@H]4CCC5=CC(=O)CC[C@]5(C)[C@@]4(F)[C@@H](O)C[C@]3(C)[C@]2(C(=O)CCl)O1 [HALCINONIDE],Not Active
2,CCCN1C[C@H](CSC)C[C@@H]2c3cccc4[nH]cc(c34)C[C@H]21 [PERGOLIDE],Not Active
3,Clc1cccc(Cl)c1NC1=NCCN1 [CLONIDINE],Not Active
4,CN(C)CCCN1c2ccccc2Sc2ccc(Cl)cc21 [CHLORPROMAZINE],Not Active
5,CCOC(=O)C1=C(COCCN)NC(C)=C(C(=O)OC)C1c1ccccc1Cl (stereo not drawn) [AMLODIPINE],Not Active
6,CNCCCN1c2ccccc2CCc2ccccc21 [DESIPRAMINE],Not Active
7,Cc1ccc(/N=C/N(C)/C=N/c2ccc(C)cc2C)c(C)c1 [AMITRAZ],Not Active
8,COc1cc2nc(N3CCN(C(=O)C4COc5ccccc5O4)CC3)nc(N)c2cc1OC (stereo not drawn) [DOXAZOSIN],Not Active
9,COCCc1ccc(OCC(O)CNC(C)C)cc1 (stereo not drawn) [METOPROLOL],Not Active

# Molecular target: T1, Alpha-1B adrenergic receptor (Rattus norvegicus, UniProt P15823)
# T1 sequence (P15823 whole entry): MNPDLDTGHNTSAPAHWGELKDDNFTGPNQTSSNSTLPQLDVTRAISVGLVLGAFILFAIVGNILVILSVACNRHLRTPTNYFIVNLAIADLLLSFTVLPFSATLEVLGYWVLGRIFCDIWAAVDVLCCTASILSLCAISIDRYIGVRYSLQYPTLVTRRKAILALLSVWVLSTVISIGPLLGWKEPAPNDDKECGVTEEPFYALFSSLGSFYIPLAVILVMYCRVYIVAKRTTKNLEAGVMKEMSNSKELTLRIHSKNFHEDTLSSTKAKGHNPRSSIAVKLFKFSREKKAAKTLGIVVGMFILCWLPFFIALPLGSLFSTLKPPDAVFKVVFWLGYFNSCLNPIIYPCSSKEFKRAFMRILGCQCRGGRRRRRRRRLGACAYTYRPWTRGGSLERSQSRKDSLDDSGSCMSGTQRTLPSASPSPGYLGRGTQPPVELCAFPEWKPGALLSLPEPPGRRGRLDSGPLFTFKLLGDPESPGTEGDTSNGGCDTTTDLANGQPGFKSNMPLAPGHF
# Assay: DRUGMATRIX: Alpha-1B adrenergic receptor radioligand binding (ligand: prazosin)
# Assay type: cell membranes, Wistar, Liver, Membrane
# Conditions: Not Active = under 50% inhibition at 10 µM
row,Compound,IC50
1,CC1(C)O[C@@H]2C[C@H]3[C@@H]4CCC5=CC(=O)CC[C@]5(C)[C@@]4(F)[C@@H](O)C[C@]3(C)[C@]2(C(=O)CCl)O1 [HALCINONIDE],Not Active
2,CCOC(=O)C1=C(COCCN)NC(C)=C(C(=O)OC)C1c1ccccc1Cl (stereo not drawn) [AMLODIPINE],Not Active
3,CNCCCN1c2ccccc2CCc2ccccc21 [DESIPRAMINE],Not Active
4,Cc1ccc(/N=C/N(C)/C=N/c2ccc(C)cc2C)c(C)c1 [AMITRAZ],Not Active
5,COCCc1ccc(OCC(O)CNC(C)C)cc1 (stereo not drawn) [METOPROLOL],Not Active

# Same assay, conditions: Not Active = under 50% inhibition at 10 µM; read-out: IC50
row,Compound,IC50
1,CCCN1C[C@H](CSC)C[C@@H]2c3cccc4[nH]cc(c34)C[C@H]21 [PERGOLIDE],2620 nM
2,COc1cc2nc(N3CCN(C(=O)C4COc5ccccc5O4)CC3)nc(N)c2cc1OC (stereo not drawn) [DOXAZOSIN],0.751 nM

# Same assay, conditions: Not Active = under 50% inhibition at 10 µM; read-out: Ki
row,Compound,Ki
1,CCCN1C[C@H](CSC)C[C@@H]2c3cccc4[nH]cc(c34)C[C@H]21 [PERGOLIDE],1450 nM
2,COc1cc2nc(N3CCN(C(=O)C4COc5ccccc5O4)CC3)nc(N)c2cc1OC (stereo not drawn) [DOXAZOSIN],0.416 nM

# Tested on: not listed separately
# Assay: DRUGMATRIX: Phosphodiesterase PDE3 enzyme inhibition (substrate: [3H]cAMP + cAMP)
# Assay type: tissue-based, Homo sapiens
# Conditions: platelet; Not Active = under 50% inhibition at 10 µM
Compound,IC50,Ki
CC1(C)O[C@@H]2C[C@H]3[C@@H]4CCC5=CC(=O)CC[C@]5(C)[C@@]4(F)[C@@H](O)C[C@]3(C)[C@]2(C(=O)CCl)O1 [HALCINONIDE],Not Active,Not Active
CCCN1C[C@H](CSC)C[C@@H]2c3cccc4[nH]cc(c34)C[C@H]21 [PERGOLIDE],Not Active,Not Active
Clc1cccc(Cl)c1NC1=NCCN1 [CLONIDINE],Not Active,Not Active
CN(C)CCCN1c2ccccc2Sc2ccc(Cl)cc21 [CHLORPROMAZINE],Not Active,Not Active
CCOC(=O)C1=C(COCCN)NC(C)=C(C(=O)OC)C1c1ccccc1Cl (stereo not drawn) [AMLODIPINE],Not Active,Not Active
CNCCCN1c2ccccc2CCc2ccccc21 [DESIPRAMINE],Not Active,Not Active
Cc1ccc(/N=C/N(C)/C=N/c2ccc(C)cc2C)c(C)c1 [AMITRAZ],Not Active,Not Active
COc1cc2nc(N3CCN(C(=O)C4COc5ccccc5O4)CC3)nc(N)c2cc1OC (stereo not drawn) [DOXAZOSIN],Not Active,Not Active
COCCc1ccc(OCC(O)CNC(C)C)cc1 (stereo not drawn) [METOPROLOL],Not Active,Not Active

# Molecular target: T2, Thromboxane-A synthase (Homo sapiens, UniProt P24557);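 also: enzyme inhibition assay with PGH2 supplied as substrate; in other assays of this panel Not Active means under 50% inhibition at 10 µM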
# T2 sequence (P24557 whole entry): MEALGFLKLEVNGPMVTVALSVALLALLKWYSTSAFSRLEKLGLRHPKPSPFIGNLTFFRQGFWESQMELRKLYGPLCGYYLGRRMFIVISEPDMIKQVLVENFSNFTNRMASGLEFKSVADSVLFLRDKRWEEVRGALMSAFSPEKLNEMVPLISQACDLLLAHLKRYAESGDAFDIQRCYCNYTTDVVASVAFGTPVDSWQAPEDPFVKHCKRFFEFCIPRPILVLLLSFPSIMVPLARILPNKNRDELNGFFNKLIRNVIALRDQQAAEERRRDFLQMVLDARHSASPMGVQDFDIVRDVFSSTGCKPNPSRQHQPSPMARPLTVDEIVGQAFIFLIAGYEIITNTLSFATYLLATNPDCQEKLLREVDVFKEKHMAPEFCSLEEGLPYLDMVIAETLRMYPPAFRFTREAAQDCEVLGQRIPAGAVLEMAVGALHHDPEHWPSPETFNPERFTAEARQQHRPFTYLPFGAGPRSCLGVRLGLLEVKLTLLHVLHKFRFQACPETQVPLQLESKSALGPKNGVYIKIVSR
# Assay: biochemical
# Assay type: tissue-based, Platelet
# Conditions: platelet
row,Compound,IC50
1,CC1(C)O[C@@H]2C[C@H]3[C@@H]4CCC5=CC(=O)CC[C@]5(C)[C@@]4(F)[C@@H](O)C[C@]3(C)[C@]2(C(=O)CCl)O1 [HALCINONIDE],Not Active
2,CCCN1C[C@H](CSC)C[C@@H]2c3cccc4[nH]cc(c34)C[C@H]21 [PERGOLIDE],Not Active
3,Clc1cccc(Cl)c1NC1=NCCN1 [CLONIDINE],Not Active
4,CN(C)CCCN1c2ccccc2Sc2ccc(Cl)cc21 [CHLORPROMAZINE],Not Active
5,CCOC(=O)C1=C(COCCN)NC(C)=C(C(=O)OC)C1c1ccccc1Cl (stereo not drawn) [AMLODIPINE],Not Active
6,CNCCCN1c2ccccc2CCc2ccccc21 [DESIPRAMINE],Not Active
7,Cc1ccc(/N=C/N(C)/C=N/c2ccc(C)cc2C)c(C)c1 [AMITRAZ],Not Active
8,COc1cc2nc(N3CCN(C(=O)C4COc5ccccc5O4)CC3)nc(N)c2cc1OC (stereo not drawn) [DOXAZOSIN],Not Active
9,COCCc1ccc(OCC(O)CNC(C)C)cc1 (stereo not drawn) [METOPROLOL],Not Active

# Molecular target: Beta-2 adrenergic receptor (Homo sapiens, UniProt P07550)
# Sequence (P07550 whole entry): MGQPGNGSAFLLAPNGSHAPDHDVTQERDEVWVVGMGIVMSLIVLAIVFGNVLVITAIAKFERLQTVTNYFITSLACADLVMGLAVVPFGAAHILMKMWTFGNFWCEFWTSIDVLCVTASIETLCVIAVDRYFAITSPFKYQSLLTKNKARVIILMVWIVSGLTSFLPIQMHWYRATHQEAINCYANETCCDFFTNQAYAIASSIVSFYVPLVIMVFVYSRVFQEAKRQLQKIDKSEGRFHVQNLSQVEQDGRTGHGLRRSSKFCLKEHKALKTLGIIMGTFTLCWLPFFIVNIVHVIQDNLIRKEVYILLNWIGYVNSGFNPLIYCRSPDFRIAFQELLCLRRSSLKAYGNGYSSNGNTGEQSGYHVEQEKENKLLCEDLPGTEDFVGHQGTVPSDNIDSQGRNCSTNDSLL
# Assay: DRUGMATRIX: Adrenergic beta2 radioligand binding (ligand: [3H] CGP-12177)
# Assay type: cell membranes, Membrane
# Conditions: cho; Not Active = under 50% inhibition at 10 µM
row,Compound,IC50
1,CC1(C)O[C@@H]2C[C@H]3[C@@H]4CCC5=CC(=O)CC[C@]5(C)[C@@]4(F)[C@@H](O)C[C@]3(C)[C@]2(C(=O)CCl)O1 [HALCINONIDE],Not Active
2,CCCN1C[C@H](CSC)C[C@@H]2c3cccc4[nH]cc(c34)C[C@H]21 [PERGOLIDE],Not Active
3,Clc1cccc(Cl)c1NC1=NCCN1 [CLONIDINE],Not Active
4,CN(C)CCCN1c2ccccc2Sc2ccc(Cl)cc21 [CHLORPROMAZINE],Not Active
5,CCOC(=O)C1=C(COCCN)NC(C)=C(C(=O)OC)C1c1ccccc1Cl (stereo not drawn) [AMLODIPINE],Not Active
6,Cc1ccc(/N=C/N(C)/C=N/c2ccc(C)cc2C)c(C)c1 [AMITRAZ],Not Active

# Molecular target: T3, Alpha-2A adrenergic receptor (Homo sapiens, UniProt P08913); also: in other assays of this panel Not Active means under 50% inhibition at 10 µM
# T3 sequence (P08913 whole entry): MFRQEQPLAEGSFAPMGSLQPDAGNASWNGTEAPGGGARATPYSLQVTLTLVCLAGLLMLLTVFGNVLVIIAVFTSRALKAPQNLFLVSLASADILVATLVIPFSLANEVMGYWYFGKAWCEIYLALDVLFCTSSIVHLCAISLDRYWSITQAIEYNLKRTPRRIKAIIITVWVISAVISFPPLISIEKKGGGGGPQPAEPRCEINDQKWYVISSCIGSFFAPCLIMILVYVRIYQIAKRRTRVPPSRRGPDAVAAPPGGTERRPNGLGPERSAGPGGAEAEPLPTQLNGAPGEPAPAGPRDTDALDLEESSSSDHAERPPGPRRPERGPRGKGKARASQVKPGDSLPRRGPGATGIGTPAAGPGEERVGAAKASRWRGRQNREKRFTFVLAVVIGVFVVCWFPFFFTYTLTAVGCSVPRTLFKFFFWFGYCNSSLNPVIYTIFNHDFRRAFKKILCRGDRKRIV
# Assay: not given
# Assay type: cell membranes, Sf9, Membrane
# Conditions: sf9
row,Compound,IC50
1,CC1(C)O[C@@H]2C[C@H]3[C@@H]4CCC5=CC(=O)CC[C@]5(C)[C@@]4(F)[C@@H](O)C[C@]3(C)[C@]2(C(=O)CCl)O1 [HALCINONIDE],Not Active
2,CNCCCN1c2ccccc2CCc2ccccc21 [DESIPRAMINE],Not Active
3,COc1cc2nc(N3CCN(C(=O)C4COc5ccccc5O4)CC3)nc(N)c2cc1OC (stereo not drawn) [DOXAZOSIN],Not Active
4,COCCc1ccc(OCC(O)CNC(C)C)cc1 (stereo not drawn) [METOPROLOL],Not Active
